Values joined by “and” are separate entries in the source; they are usually repeats but may differ in a detail not shown here. Identical values can stand only once. “Also recorded” adds a separate entry of the source.
Columns and labels:
[1] = Phase II study: monitoring of cardiac function (LVEF, ECG); assay type: in vivo, human
Method: (§1) Before starting the study patients were evaluated by a full blood count, serum biochemistry including liver function tests, lactate dehydrogenase (LDH) and cholesterol. Risk factors for cardiovascular disease were also evaluated. An LVEF and an ECG were performed before entry into the study.
(§2) Every subsequent administration of monoHER and DOX was preceded by a full blood count, liver enzymes, serum creatinine and a routine 12-lead ECG. A complete blood count was also done 10 days after the chemotherapy.
(§3) After a cumulative dose of 300 mg/m^2 DOX an endomyocardial biopsy was performed and measurement of the LVEF was repeated. The latter was also done at least 3 weeks after the last dose of DOX and a biopsy was repeated if possible. For logistic reasons, the biopsy of patient #8 was done after a cumulative dose of 375 mg/m^2 DOX.
Patients went off study in case of progressive disease, a serious cardiac event, or other events that precluded further treatment. Criteria described by Shapiro et al. (22) were used for diagnosis of cardiac events. Episodes of cardiac dysfunction were characterized according to the New York Heart Association functional classification (23).

[2] = tested on: doxorubicin-induced chronic cardiotoxicity; settings: preclinical, cited from earlier work
[3] = Phase II study: adverse events and laboratory monitoring; assay type: in vivo, human
Method: (§4) MonoHER was administered as a 10 min intravenous infusion at a dose of 1500 mg/m^2 60 min before every DOX administration. If cardiotoxicity would be observed in the first three evaluable patients, administration according to this dosing scheme would be changed and the following patients would receive DOX infusion either immediately after monoHER (because in plasma and heart Cmax of monoHER is obtained immediately after the end of infusion (17, 19)) or with an interval of 2 hours (to give monoHER the opportunity to convert into an active metabolite, if any).
as §1, §2

[4] = Detection of metabolites of monoHER
[5] = tested on: metastatic solid tumors; assay: Phase II study: assessment of tumor response by CT-scan, ECOG criteria; assay type: in vivo, human; design: key to Response on dox: PD = progressive disease; PR = partial remission; SD = stabile disease; settings: for partial remission maintained, time after the start of chemotherapy: maintained up to the present
Method: Patients with metastatic solid tumors were entered when they received a DOX-based chemotherapy regimen with a dosage of DOX ≥ 50 mg/m^2/ cycle and an infusion duration ≤ 1 hour. […] The left ventricular ejection fraction (LVEF) was > 50%. Patients were excluded if they had received prior anthracyclines, had prior or actual cardiovascular disease or had prior radiotherapy to the mediastinum.
as §4
Assessment of tumor response was done every 2-3 cycles by CT-scan, using standard ECOG criteria (24).

[6] = cited from earlier work
[7] = tested on: cardiomyocytes; assay: Phase II study: endomyocardial biopsy scored by electron microscopy for DOX-induced cardiotoxicity; assay type: in vivo, human; settings: for Biopsy score cum.dose/Δt/grade: left ventricle; for Cum.dose / biopsy score / LVEF: biopsy score: second biopsy
Method: In this example, we evaluated the cardioprotective properties of monoHER given as a 10 minute i.v infusion at a dose of 1500 mg/m^2 in patients with metastatic cancer treated with DOX. For the early detection of DOX-induced cardiotoxicity endomyocardial biopies were taken, because of its high sensitivity and high specificity (18).
as §4, §3
During a left heart catheterization, a 104 cm, 7 french biopsy forceps was used to obtain tissue from the left ventricle. Three to four specimens 0.5 to 1 mm in diameter were obtained. The specimens were fixed in 4% buffered formaldehyde and prepared for electron microscopy.
After fixation in 4% buffered formaldehyde, the heart tissue was post fixed in 1% osmium tetroxide. The tissue was then dehydrated through a graded series of ethanol solutions of 70-95% and embedded in JB-4 Plus resin. Thereafter, 0.5-3.0 µm thick sections were cut with a glass knife. These semithin sections were processed for electron microscopy. Cardiomyocytes with more than 2 microvacuoles, macrovacuoles and/or loss of myofibrils were counted as deviant. The morphological grade determined from the specimens examined by electron microscopy was scored on a 6-point scale previously described by Billingham and Bristow (20, 21): in grade 0 cells are normal; in grade 1, 1.5, 2 and 2.5 deviant cells are < 5%, 5-15%, 16 - 25 % and 26 - 35%, respectively; in grade 3 cell damage is present in more than 35% of cells.

[8] = tested on: cardiomyocytes; settings: cited from earlier work
[9] = tested on: STS; settings: STS patients without prior chemotherapy; DOX alone; cited from earlier work
[10] = patient 03, cum. dose 480 mg/m^2 DOX
[11] = patient 04, cum. dose 450 mg/m^2 DOX

**Q.** For `C[C@@H]1O[C@@H](OC[C@H]2O[C@@H](Oc3c(-c4ccc(O)c(O)c4)oc4cc(OCCO)cc(O)c4c3=O)[C@H](O)[C@@H](O)[C@@H]2O)[C@H](O)[C@H](O)[C@H]1O` [monoHER, 7-monohydroxyethylrutoside], which “patients in whom the LVEF decreased” value ([1]; after 300-375 mg/m^2 DOX, no LVEF information for patient #6) is on record?
**A.** 4/5

**Q.** And the ECG during therapy ([1]; all patients)?
**A.** remained unchanged

**Q.** What about the cardiac dysfunction ([1]; all patients, during therapy) of the same compound?
**A.** no cardiac dysfunction occurred

**Q.** And the “LVEF 10 months after last cycle” value ([1]; patient 03)?
**A.** ND / 51%

**Q.** And the “LVEF after ≥ 300 mg/m^2” value ([1]; patient 03, LVEF before dox 71%, Δt 60 min)?
**A.** 67%

**Q.** And the “Cum.dose / biopsy score / LVEF: LVEF” value [1, 10]?
**A.** 53%

**Q.** And the “LVEF 10 months after last cycle” value ([1]; patient 04)?
**A.** 62%

**Q.** And the “LVEF after ≥ 300 mg/m^2” value ([1]; patient 04, LVEF before dox 72%, Δt 60 min)?
**A.** 60%

**Q.** What about the “Cum.dose / biopsy score / LVEF: LVEF” value [1, 11] of the same compound?
**A.** 66%

**Q.** And the “LVEF after ≥ 300 mg/m^2” value ([1]; patient 07, LVEF before dox 75%, Δt 10 min)?
**A.** 63%

**Q.** And the “LVEF after ≥ 300 mg/m^2” value ([1]; patient 08, LVEF before dox 65%, Δt 120 min, 375 mg/m^2 DOX)?
**A.** 63%

**Q.** What about the “decline of LVEF compared to the ejection fraction before start of the study” value ([1]; patient #3, after 480 mg/m2 DOX, 71% to 53%) of the same compound?
**A.** 25%

**Q.** And the “decline of LVEF” value ([1]; patient #4, 72% before chemotherapy to 60% after 300 mg/m2 DOX)?
**A.** > 15%

**Q.** What about the “LVEF decrease in comparison to the initial LVEF” value ([1]; two other patients) of the same compound?
**A.** 4-6%

**Q.** And the “LVEF drop in comparison to the initial LVEF” value ([1]; two patients)?
**A.** 16%

**Q.** And the “influence on the antitumor activity of doxorubicin” value ([2]; in vitro or in vivo)?
**A.** did not influence the antitumor activity of doxorubicin

**Q.** What about the “cardioprotection against doxorubicin-induced chronic cardiotoxicity” value ([2]; animals) of the same compound?
**A.** dose-dependent cardioprotection

**Q.** What about the “adverse events during monoHER infusion” value ([3]; 8 patients, sensation of fullness in stomach (one), itching in skin of neck (one), during each cycle) of the same compound?
**A.** two patients reported adverse events

**Q.** What about the leucopenia ([3]; due to chemotherapy, recovered before the start of the next cycle) of the same compound?
**A.** all patients developed leucopenia

**Q.** What about the “liver enzymes and serum creatinine” value ([3]; monoHER 1500 mg/m^2 plus DOX) of the same compound?
**A.** No disturbances

**Q.** What about the “metabolites of monoHER” value [4] of the same compound?
**A.** no metabolites of monoHER have been detected until now

**Q.** What about the “patients with partial remission / objective remission” value ([5]; 4 patients with metastatic soft tissue sarcoma (STS), DOX preceded by monoHER 1500 mg/m^2) of the same compound?
**A.** Three and 3 of the four

**Q.** What about the “effect on antitumour activity of DOX” value ([5]; STS patients) of the same compound?
**A.** enhances the antitumour activity of DOX

**Q.** And the Response on dox ([5]; patient 01, Breast cancer, total DOX 100 mg/m^2, monoHER 1500 mg/m^2 i.v. 60 min before every DOX)?
**A.** PD

**Q.** And the Response on dox ([5]; patient 02, Adrenal cortical cancer, total DOX 150 mg/m^2, monoHER 1500 mg/m^2 i.v. 60 min before every DOX)?
**A.** PD

**Q.** And the Response on dox ([5]; patient 03, Malignant peripheral nerve sheet tumor, total DOX 480 mg/m^2, monoHER 1500 mg/m^2 i.v. 60 min before every DOX)?
**A.** PR

**Q.** And the Response on dox ([5]; patient 04, Malignant fibrous histiocytoma, total DOX 450 mg/m^2, monoHER 1500 mg/m^2 i.v. 60 min before every DOX)?
**A.** PR

**Q.** And the Response on dox ([5]; patient 05, Breast cancer, total DOX 100 mg/m^2, monoHER 1500 mg/m^2 i.v. 60 min before every DOX)?
**A.** PD

**Q.** What about the Response on dox ([5]; patient 06, Breast cancer, total DOX 300 mg/m^2, monoHER 1500 mg/m^2 i.v. 60 min before every DOX) of the same compound?
**A.** SD

**Q.** And the Response on dox ([5]; patient 07, Malignant fibrous histiocytoma, total DOX 300 mg/m^2, DOX immediately after monoHER 1500 mg/m^2 i.v.)?
**A.** PR

**Q.** And the Response on dox ([5]; patient 08, Malignant fibrous histiocytoma, total DOX 375 mg/m^2, DOX 2 h after monoHER 1500 mg/m^2 i.v.)?
**A.** SD

**Q.** What about the “duration of partial remission” value ([5]; patient #3, then progressive disease) of the same compound?
**A.** nine

**Q.** And the “partial remission maintained, time after the start of chemotherapy” value ([5]; patient #4)?
**A.** ≥ 30 months

**Q.** And the “partial remission maintained, time after the start of chemotherapy” value ([5]; patient #7)?
**A.** ≥ 16 months

**Q.** What about the “duration of stable disease” value ([5]; patient #8, continuing DOX up to cumulative dose of 495 mg/m^2) of the same compound?
**A.** at least 7 months

**Q.** What about the “Cmax and AUC” value ([6]; dose 1500 mg/m^2) of the same compound?
**A.** comparable to those obtained in mice under protecting conditions

**Q.** And the side effects ([6]; up to a dose of 1500 mg/m^2)?
**A.** No serious side effects were observed

**Q.** What about the “mean biopsy score according to Billingham” value ([7]; 5 patients, median cumulative dose 300 mg/m2 DOX, monoHER 1500 mg/m^2 before DOX) of the same compound?
**A.** 2.7

**Q.** And the “cardioprotective effect against DOX-induced cardiotoxicity” value ([7]; five patients with biopsy, monoHER 1500 mg/m^2)?
**A.** no cardioprotective effect; also recorded: did not protect against DOX-induced cardiotoxicity

**Q.** And the “Biopsy score cum.dose/Δt/grade” value ([7]; patient 03, cum. dose 300 mg/m^2 DOX, Δt 60 min after monoHER 1500 mg/m^2)?
**A.** 300 / 60 / Grade 3 (in grade 3 cell damage is present in more than 35% of cells)

**Q.** And the “Cum.dose / biopsy score / LVEF: biopsy score” value [7, 10]?
**A.** 3 (in grade 3 cell damage is present in more than 35% of cells)

**Q.** And the “Cum.dose / biopsy score / LVEF: biopsy score” value [7, 11]?
**A.** 2.5 (in grade 1, 1.5, 2 and 2.5 deviant cells are < 5%, 5-15%, 16 - 25 % and 26 - 35%, respectively)

**Q.** And the “Biopsy score 10 months after last cycle” value ([7]; patient 04, third biopsy)?
**A.** 2 (in grade 1, 1.5, 2 and 2.5 deviant cells are < 5%, 5-15%, 16 - 25 % and 26 - 35%, respectively)

**Q.** What about the “Biopsy score cum.dose/Δt/grade” value ([7]; patient 06, cum. dose 300 mg/m^2 DOX, Δt 60 min after monoHER 1500 mg/m^2) of the same compound?
**A.** 300 / 60 / Grade 2.5 (in grade 1, 1.5, 2 and 2.5 deviant cells are < 5%, 5-15%, 16 - 25 % and 26 - 35%, respectively)

**Q.** What about the “Biopsy score cum.dose/Δt/grade” value ([7]; patient 07, cum. dose 300 mg/m^2 DOX, Δt 10 min after monoHER 1500 mg/m^2) of the same compound?
**A.** 300 / 10 / Grade 3 (in grade 3 cell damage is present in more than 35% of cells)

**Q.** What about the “Biopsy score cum.dose/Δt/grade” value ([7]; patient 08, cum. dose 375 mg/m^2 DOX, Δt 120 min after monoHER 1500 mg/m^2) of the same compound?
**A.** 375 / 120 / Grade 3 (in grade 3 cell damage is present in more than 35% of cells)

**Q.** What about the “microvacuoles present in % of the cardiomyocytes” value ([7]; patient #3, after 300 mg/m^2 DOX, monoHER 60 min before DOX) of the same compound?
**A.** 52%

**Q.** What about the “microvacuoles present in % of the cardiomyocytes” value ([7]; patient #4, after 300 mg/m^2 DOX, monoHER 60 min before DOX) of the same compound?
**A.** 20%

**Q.** What about the “cardiomyocytes with > 2 small vacuoles per cardiomyocyte” value ([7]; patient #6, after 300 mg/m^2 DOX, monoHER 60 min before DOX) of the same compound?
**A.** 33%

**Q.** And the “microvacuolization in % of the cardiomyocytes” value ([7]; patient #7, DOX immediately after monoHER)?
**A.** 60%

**Q.** What about the “microvacuolization in % of the cardiomyocytes” value ([7]; patient #8, DOX 2 h after monoHER) of the same compound?
**A.** 49%

**Q.** Which “patients with anthracycline-induced myocardial damage” value ([8]; cumulative DOX doses of 240 mg/m^2, data of Billingham et al.) does the source give for `COc1cccc2c1C(=O)c1c(O)c3c(c(O)c1C2=O)C[C@@](O)(C(=O)CO)C[C@@H]3O[C@H]1C[C@H](N)[C@H](O)[C@H](C)O1` [DOX, doxorubicin] here?
**A.** nearly all patients

**Q.** What about the “biopsy score expected after DOX alone” value ([8]; cumulative dose of 300 mg/m^2 DOX, linear regression analysis of Torti et al., right ventricle) of the same compound?
**A.** 1.4

**Q.** What about the “objective responses on DOX” value [9] of the same compound?
**A.** approximately 25%
